Source: patent US20060286139A1, “Polymeric drug release system for medical devices” (priority 2003, published 2006)

Test: Drug elution from dual-coated stents (17β-estradiol in PEP94 bottom layer, dexamethasone in PEP90 top layer) into aqueous release medium, HPLC analysis
Type: physicochemical
Conditions: for Percentage Released: bottom layer PEP94, aqueous release medium 37° C.; for Total Microgrammes Released: bottom layer PEP94, loading approx 147 μg, aqueous release medium 37° C.
Experimental: This example describes the preparation and elution of stents comprising 17β-estradiol and dexamethasone each contained within a specific ratio of PVB/PnVPA
A coating solution was prepared made up of PEP94 and 17β-estradiol in a blend of chloroform and acetone (80:20 by weight), so that in terms of total solids 25% was 17β-estradiol, 75% polymer.
A second coating solution was prepared made of PEP 90 and dexamethasone in a mixture of chloroform and acetone (80:20 by weight), so that in terms of total solids 25% was dexamethasone, 75% polymer.
The stents were weighed, spray coated in a ratio of 3:1 (estradiol: dexamethasone) with the respective formulations such that the bottom layer comprised PEP94 with 17β-estradiol and the top layer PEP90 with dexamethasone. The stents were then dried overnight at 40° C. under vacuum.
Upon weighing the average coating weight of the stents was 811 μg yielding drug loadings of approx 147 μg±17 μg for 17β-estradiol and 57 μg±16 μg for dexamethasone.
Each stent was placed on a hook and suspended in a vial containing 8 ml of an aqueous release medium with a 5 mm magnetic flea. The vials were placed on a multipoint stirrer set at 1000 rpm and incubated at 37° C. After a given time interval (ranging from 1 hour to several days), the stents were transferred to fresh aliquots of release medium and replaced on the stirrer to resume agitation. The solution containing dexamethasone/17β-estradiol was set aside for analysis.
Analysis of the samples was carried out using HPLC (Agilent 1100 series).

C[C@]12CC[C@@H]3c4ccc(O)cc4CC[C@H]3[C@@H]1CC[C@@H]2O [17β-estradiol]
Percentage Released (time 1 hour): 5.1%
Percentage Released (time 7 hours): 10.5%
Percentage Released (time 24 hours): 17.1%
Total Microgrammes Released (time 1 hour): 7.5 µg
Total Microgrammes Released (time 7 hours): 15.5 µg
Total Microgrammes Released (time 24 hours): 25.1 µg
